The nature of assay [1]: cytotoxicity in HEK-293T cells, dose response, cytotoxicity control for TCR NF-kB inhibitor project, luminescence, T-cell screen hits (AID 489026).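 Note: cells exposed to compound about 14 hours before the viability readout.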 It is filed as functional, cell-based.
Assay [2] deals with INS1. The assay is described as follows: beta cell apoptosis inhibitors, cytokine rescue, dose response, luminescence, retest (AID 449756).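 Note: cell death triggered by IL-1 beta plus TNF-alpha plus IFN-gamma mixture; protective hits raise ATP signal compared with cytokine alone wells.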 It is filed as functional, cell-based. The following applies: Rattus norvegicus.
In assay [3] the target is ATP-dependent molecular chaperone HSP82 (Candida albicans (strain WO-1) (Yeast), UniProt C4YTQ8). The assay is described as follows: loss of DOC-induced GRE-beta-galactosidase reporter signal, dose response, Hsp90 inhibitor project, S. cerevisiae, luminescence (AID 2400).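 Note: beta-galactosidase luminescence from glucocorticoid response element reporter as proxy for Hsp90 function; inhibitor potency where signal loss means Hsp90 inhibition.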 It is filed as functional, cell-based.
The test system of assay [4] is HEK293. In words: SAR Analysis of small molecule inhibitors of T-cell specific antigen receptor-induced NF-kB activation in a HEK-293T cell line using a luminescence assay. [Related pubchem assays (depositor defined):AID435003, AID435012, AID489026]. The following applies: Homo sapiens. Type of assay: functional, cell-based.
The nature of assay [5]: cytotoxicity toward NIH3T3 fibroblasts, dose response, counter-screen, cell-based, ATP luminescence, mouse fibroblasts (AID 2010).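 Note: cells exposed to compound for about 90 hours before reading.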 Type of assay: functional. A general note: A counterscreen serves to expose hits that act by an unwanted route or on another target.
Assay [6] can be described thus: cells. It is filed as functional, cell-based.
Assay [7] can be described thus: inhibitors of intracellular T. cruzi replication, confirmation, NIH3T3 host cells, beta-gal luminescence (AID 2044).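 Note: intracellular parasites grown in NIH/3T3 mouse fibroblasts as host cells; luminescent beta-galactosidase reporter signal from transgenic T. cruzi replicating inside host cells; inhibitors lower the luminescence signal.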 It is filed as functional, cell-based.
The nature of assay [8]: Counterscreen for AddAB inhibitors: absorbance-based bacterial cell-based high throughput dose response assay for inhibitors of bacterial viability. [Related pubchem assays (depositor defined):AID435030, AID449728, AID449731, AID488942, AID488955, AID488956]. Type of assay: functional.
The test system of assay [9] is HEK293. The assay is described as follows: SAR Analysis of small molecule inhibitors of T-cell specific antigen receptor-induced NF-kB activation in a HEK-293T cell line using a luminescence assay - Set 2. [Related pubchem assays (depositor defined):AID435003, AID435012, AID489026]. Type of assay: functional, cell-based. The following applies: Homo sapiens.
The target in assay [10] is Exodeoxyribonuclease V (Escherichia coli (strain K12), UniProt P04993+P07648+P08394). In words: E. coli RecBCD inhibitors, dose response, counter-screen for AddAB inhibitor project, absorbance, V66 E. coli, mutant T4 phage (AID 492957). It is filed as functional, cell-based, Escherichia coli str. K-12 substr. MG1655.
The target in assay [11] is Heat shock protein HSP 90-alpha (Homo sapiens, UniProt P07900). Type of assay: functional, organism-based.
Assay [12] in a line: HepG2 cell cytotoxicity, dose response, cytotoxicity control for Shn3 inhibitor project, CellTiter-Glo, cherry-picked (AID 624134). Type of assay: functional, cell-based. For orientation: In ATP-based viability assays light output follows the ATP content of the culture.
Assay [13] can be described thus: Shn3 3'UTR reporter inhibitors, dose response, cell-based, Clone20 osteoblasts, firefly luciferase, cherry-picked (AID 624132).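 Note: firefly luciferase luminescence from reporter carrying the Shn3 3'UTR in osteoblasts.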 It is filed as functional.
Assay [14] in a line: NIH-3T3 fibroblast cytotoxicity, dose response, cytotoxicity control, cell-based, fluorescence, Alamar Blue, secondary assay (AID 2327).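 Note: NIH-3T3 mouse fibroblasts cultured with fluconazole at 8 µg/mL.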 Type of assay: functional. For orientation: Alamar Blue is a resazurin reagent that responds to reducing activity.
Assay [15] in a line: cytotoxicity in MIN6 insulinoma cells, dose response, cytotoxicity control, cell-based, mouse insulinoma (AID 2122).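 Note: confirmatory high-throughput counterscreen run to flag cytotoxic compounds; mouse MIN-6 beta cells carrying an insulin promoter eGFP reporter.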 It is filed as functional.
The nature of assay [16]: control 3'UTR Renilla luciferase suppression, dose response, counter-screen for Shn3 inhibitor project, cell-based, Clone20-Shn3RL, cherry-picked (AID 624133). Type of assay: functional.
Assay [17] concerns the target Serine/threonine-protein phosphatase (Candida dubliniensis (strain CD36 / CBS 7987 / NCPF 3949 / NRRLY-17841) (Yeast), UniProt B9W6M3). The assay is described as follows: calcineurin pathway inhibitors in yeast reporter, dose response, S. cerevisiae, CDRE-lacZ, luminescence, secondary (AID 2388).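 Note: yeast reporter cells carrying a calcineurin-responsive lacZ construct stimulated with calcium chloride; luminescent beta-galactosidase reporter signal in whole cells rather than isolated phosphatase activity; potency for inhibition where a drop in reporter signal means calcineurin blockade.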 Type of assay: functional, cell-based.
Assay [18] in a line: cells. Type of assay: functional, cell-based. This is another data set of the same source.
Assay [19] is described as follows: C. albicans growth with fluconazole, confirmation, fluorescence, retest (AID 2467). It is filed as functional, cell-based.
Assay [20] has as its system Jurkat. The assay is described as follows: SAR Analysis of small molecule inhibitors of T-cell specific antigen receptor-induced NF-kB activation in a Jurkat cell line using a luminescence assay - Set 2. [Related pubchem assays (depositor defined):AID435003, AID435012, AID465]. Type of assay: functional, cell-based. The following applies: Homo sapiens.
Assay [21] has as its system Jurkat. The assay is described as follows: SAR Analysis of small molecule inhibitors of T-cell specific antigen receptor-induced NF-kB activation in a Jurkat cell line using a luminescence assay. [Related pubchem assays (depositor defined):AID435003, AID435012, AID465]. The following applies: Homo sapiens. It is filed as functional, cell-based.
The nature of assay [22]: insulin promoter down-regulators in MIN6 cells, imaging, high-content screening, mouse beta cells (AID 1628). It is filed as functional.
The target in assay [23] is Genome polyprotein (dengue virus type 2, UniProt P29990). In words: Dengue-2 NS5 methyltransferase inhibitors, primary screen, biochemical, confirmation dose response (AID 588689). It is filed as functional.
The target of assay [24] is DNA topoisomerase (Yersinia pestis, UniProt A0A2S9PM60). The assay is described as follows: Y. pestis Topo-I inhibitors, cleavage product readout, dose response, biochemical, cherry-pick (AID 588525).
Assay [25] addresses T1, RNA-binding protein pos-1 (Caenorhabditis elegans, UniProt G5EF15).
T1 sequence (G5EF15 whole entry): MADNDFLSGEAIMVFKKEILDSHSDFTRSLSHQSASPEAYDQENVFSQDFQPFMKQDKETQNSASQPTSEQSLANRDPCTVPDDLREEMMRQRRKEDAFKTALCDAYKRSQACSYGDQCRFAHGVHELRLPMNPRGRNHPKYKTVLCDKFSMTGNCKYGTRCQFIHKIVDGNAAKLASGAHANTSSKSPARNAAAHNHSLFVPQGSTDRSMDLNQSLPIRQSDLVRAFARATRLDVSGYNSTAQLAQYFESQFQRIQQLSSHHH
The assay is described as follows: inhibitors of POS-1/mex-3 RNA binding, dose response, biochemical, fluorescence polarization (AID 1964).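 Note: purified POS-1 fused to maltose binding protein made in E. coli; potency of compounds blocking POS-1 binding to fluorescent RNA.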

The target in assay [26] is T2, Zinc finger protein mex-5 (Caenorhabditis elegans, UniProt Q9XUB2).
T2 sequence (Q9XUB2 whole entry): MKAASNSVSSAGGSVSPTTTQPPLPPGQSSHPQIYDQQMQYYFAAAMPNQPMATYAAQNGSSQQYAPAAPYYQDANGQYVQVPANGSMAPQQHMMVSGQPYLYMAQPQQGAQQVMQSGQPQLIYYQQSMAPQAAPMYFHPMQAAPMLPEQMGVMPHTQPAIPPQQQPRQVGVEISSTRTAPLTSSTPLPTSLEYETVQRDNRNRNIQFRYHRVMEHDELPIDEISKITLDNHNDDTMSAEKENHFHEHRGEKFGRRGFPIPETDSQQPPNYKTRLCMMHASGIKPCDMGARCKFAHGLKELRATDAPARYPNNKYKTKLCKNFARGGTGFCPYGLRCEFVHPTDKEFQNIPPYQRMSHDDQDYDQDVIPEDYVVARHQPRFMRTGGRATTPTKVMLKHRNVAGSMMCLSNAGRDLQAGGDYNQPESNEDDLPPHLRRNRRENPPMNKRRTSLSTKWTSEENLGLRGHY
The assay is described as follows: MEX-5/TCR-2 RNA interaction inhibitors, dose response, biochemical, C. elegans, fluorescence polarization (AID 1960).

Assay [27] addresses T3, Beta-adrenergic receptor kinase 1 (Homo sapiens, UniProt P25098). The assay is described as follows: Inhibitors of aptamer binding to bead-bound beta-adrenergic receptor kinase 1 by flow cytometry, biochemical, cherry pick 2, EC50 (AID 504815).
The target of assay [28] is T3, Beta-adrenergic receptor kinase 1. In words: aptamer displacement from bead-bound GRK2 – biochemical, cherry pick 1, bead flow cytometry, dose response (AID 504500).
The target in assay [29] is T4, Carboxy-terminal domain RNA polymerase II polypeptide A small phosphatase 1 (Homo sapiens, UniProt Q9GZU7).
T4 sequence (Q9GZU7 whole entry): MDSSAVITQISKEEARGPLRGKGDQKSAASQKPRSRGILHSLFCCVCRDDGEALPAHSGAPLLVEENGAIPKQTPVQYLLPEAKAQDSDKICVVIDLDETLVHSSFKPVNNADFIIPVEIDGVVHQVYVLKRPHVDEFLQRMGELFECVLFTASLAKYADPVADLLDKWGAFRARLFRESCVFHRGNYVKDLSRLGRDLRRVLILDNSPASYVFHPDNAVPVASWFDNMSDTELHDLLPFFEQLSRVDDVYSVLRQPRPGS
In words: inhibitors of CTDSP1, concentration-response testing, biochemical assay, absorbance-based, actives from ultra-high-throughput screening (AID 540297). Type of assay: functional.

Calls of active or inactive are those of the source.

T3 sequence (P25098 whole entry): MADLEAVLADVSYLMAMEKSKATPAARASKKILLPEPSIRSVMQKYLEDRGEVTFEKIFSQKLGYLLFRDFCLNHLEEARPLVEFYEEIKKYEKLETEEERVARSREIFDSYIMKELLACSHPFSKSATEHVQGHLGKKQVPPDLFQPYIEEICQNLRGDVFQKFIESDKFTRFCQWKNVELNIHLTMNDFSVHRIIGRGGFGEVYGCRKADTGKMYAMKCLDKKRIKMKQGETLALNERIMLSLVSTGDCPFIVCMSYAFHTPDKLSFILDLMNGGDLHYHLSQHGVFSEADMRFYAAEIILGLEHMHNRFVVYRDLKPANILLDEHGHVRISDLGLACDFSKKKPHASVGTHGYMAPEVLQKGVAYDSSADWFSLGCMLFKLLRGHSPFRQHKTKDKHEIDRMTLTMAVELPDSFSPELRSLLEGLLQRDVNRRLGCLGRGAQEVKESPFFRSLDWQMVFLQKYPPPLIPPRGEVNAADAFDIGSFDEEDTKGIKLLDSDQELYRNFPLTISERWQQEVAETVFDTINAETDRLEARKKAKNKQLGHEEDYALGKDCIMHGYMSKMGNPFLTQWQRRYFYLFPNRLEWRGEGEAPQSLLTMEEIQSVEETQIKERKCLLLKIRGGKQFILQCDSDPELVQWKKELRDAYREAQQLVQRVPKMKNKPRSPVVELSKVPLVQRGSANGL
Sequence of Genome polyprotein (P29990 2492-3391 limits assumed): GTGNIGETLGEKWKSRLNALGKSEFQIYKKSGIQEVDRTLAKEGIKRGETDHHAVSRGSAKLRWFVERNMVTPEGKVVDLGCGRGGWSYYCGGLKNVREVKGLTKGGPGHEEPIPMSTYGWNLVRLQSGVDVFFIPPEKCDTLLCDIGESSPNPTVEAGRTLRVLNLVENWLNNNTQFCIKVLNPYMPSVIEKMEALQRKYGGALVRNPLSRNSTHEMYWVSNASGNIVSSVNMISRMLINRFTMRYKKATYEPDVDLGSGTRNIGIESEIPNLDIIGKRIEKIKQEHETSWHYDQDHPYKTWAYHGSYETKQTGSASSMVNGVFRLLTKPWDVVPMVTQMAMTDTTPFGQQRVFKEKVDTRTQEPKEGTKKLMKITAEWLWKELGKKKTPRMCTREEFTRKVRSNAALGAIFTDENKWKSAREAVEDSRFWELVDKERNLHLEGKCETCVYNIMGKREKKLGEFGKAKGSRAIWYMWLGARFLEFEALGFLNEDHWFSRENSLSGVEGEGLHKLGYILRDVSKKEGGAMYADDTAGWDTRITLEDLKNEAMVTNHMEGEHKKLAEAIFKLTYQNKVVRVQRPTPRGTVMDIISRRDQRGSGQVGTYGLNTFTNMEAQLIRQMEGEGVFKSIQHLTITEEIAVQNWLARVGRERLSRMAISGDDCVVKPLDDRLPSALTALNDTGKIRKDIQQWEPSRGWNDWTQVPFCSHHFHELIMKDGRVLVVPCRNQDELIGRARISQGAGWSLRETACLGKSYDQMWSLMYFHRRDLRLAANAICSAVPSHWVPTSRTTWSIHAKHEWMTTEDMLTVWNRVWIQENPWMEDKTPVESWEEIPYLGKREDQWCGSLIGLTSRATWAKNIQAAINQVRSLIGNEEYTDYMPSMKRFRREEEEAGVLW
Sequence of Serine/threonine-protein phosphatase (B9W6M3 whole entry): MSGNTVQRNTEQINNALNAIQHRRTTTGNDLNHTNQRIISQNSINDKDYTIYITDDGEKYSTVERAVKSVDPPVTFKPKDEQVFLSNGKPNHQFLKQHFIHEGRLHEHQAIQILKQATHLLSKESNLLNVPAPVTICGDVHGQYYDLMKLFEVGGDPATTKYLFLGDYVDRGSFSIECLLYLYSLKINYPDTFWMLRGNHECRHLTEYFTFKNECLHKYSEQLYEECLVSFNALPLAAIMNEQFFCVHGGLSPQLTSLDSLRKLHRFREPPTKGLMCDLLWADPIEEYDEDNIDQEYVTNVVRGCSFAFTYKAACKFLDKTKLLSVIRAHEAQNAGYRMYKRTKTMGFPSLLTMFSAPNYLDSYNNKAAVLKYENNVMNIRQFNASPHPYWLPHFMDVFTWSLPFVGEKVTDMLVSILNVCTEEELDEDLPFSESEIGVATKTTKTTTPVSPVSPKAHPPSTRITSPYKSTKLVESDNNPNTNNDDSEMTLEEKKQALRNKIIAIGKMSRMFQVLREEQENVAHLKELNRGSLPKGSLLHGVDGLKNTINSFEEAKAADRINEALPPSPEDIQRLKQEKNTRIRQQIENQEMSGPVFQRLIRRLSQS
Sequence of DNA topoisomerase (A0A2S9PM60 whole entry): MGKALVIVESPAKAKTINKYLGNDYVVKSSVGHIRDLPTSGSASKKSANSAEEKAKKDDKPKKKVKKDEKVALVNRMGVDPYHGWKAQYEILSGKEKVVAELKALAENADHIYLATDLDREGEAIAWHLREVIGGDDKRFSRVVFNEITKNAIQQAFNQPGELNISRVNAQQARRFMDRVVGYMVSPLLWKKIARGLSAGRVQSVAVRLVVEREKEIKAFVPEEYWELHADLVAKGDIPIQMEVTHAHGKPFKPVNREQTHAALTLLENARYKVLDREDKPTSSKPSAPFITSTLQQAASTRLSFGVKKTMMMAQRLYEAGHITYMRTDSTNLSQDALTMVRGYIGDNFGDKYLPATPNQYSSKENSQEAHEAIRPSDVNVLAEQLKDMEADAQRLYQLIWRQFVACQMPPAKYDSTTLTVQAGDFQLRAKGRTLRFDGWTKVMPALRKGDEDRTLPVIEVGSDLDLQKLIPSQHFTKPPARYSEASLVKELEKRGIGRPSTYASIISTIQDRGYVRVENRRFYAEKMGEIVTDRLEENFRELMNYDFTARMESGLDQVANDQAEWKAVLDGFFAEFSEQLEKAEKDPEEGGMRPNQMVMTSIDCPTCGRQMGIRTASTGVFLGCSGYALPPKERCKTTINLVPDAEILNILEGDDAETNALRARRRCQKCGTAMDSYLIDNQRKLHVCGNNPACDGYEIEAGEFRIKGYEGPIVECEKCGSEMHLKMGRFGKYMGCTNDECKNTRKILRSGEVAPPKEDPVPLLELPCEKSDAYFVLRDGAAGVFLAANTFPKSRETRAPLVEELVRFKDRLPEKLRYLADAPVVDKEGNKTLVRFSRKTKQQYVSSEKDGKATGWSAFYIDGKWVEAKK
Sequence of ATP-dependent molecular chaperone HSP82 (C4YTQ8 whole entry): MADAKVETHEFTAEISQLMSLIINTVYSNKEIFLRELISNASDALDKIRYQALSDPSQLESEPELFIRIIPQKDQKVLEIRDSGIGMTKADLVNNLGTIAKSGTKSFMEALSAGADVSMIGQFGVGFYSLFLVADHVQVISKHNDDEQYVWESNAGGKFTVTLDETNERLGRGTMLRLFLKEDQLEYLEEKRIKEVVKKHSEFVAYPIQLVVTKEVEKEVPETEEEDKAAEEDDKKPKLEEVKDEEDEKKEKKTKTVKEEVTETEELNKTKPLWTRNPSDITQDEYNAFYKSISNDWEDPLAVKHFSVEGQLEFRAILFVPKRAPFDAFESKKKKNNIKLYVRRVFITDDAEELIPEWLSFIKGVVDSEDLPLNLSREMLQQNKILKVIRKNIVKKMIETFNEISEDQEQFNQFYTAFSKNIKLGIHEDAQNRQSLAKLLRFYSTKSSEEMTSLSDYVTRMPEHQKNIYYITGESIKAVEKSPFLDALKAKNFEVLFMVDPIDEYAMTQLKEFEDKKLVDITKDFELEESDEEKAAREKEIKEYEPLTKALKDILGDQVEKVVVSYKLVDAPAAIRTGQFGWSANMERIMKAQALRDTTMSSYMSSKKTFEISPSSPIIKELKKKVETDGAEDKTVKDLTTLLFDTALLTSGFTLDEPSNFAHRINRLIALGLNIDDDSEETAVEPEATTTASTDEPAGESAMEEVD

For the compound `CCCC(=O)NC(c1ccc(OC)cc1)c1ccc2cccnc2c1O` (centres undefined), the IC50 was > 80 µM (inactive) in assay [1]; 4.92 µM (active) in assay [4]; > 119 µM (inactive) in [8]; 3.64 µM (active) in [9]; > 119 µM (inactive) in assay [10]; 1.52 µM (active) in assay [15]. For the same compound, the IC50 in assay [20] is 3.11 µM (active); in [21], 2.96 µM (active); in assay [22] it was 1.23 µM (active). Moreover, the AC50 was 0.696 µM (active) in assay [2]; 4.08 µM (active) in [11]; 2.33 µM (active) in assay [12]; 1.18 µM (active) in assay [13]; 1.08 µM (active) in assay [16]. The EC50 in assay [3] was > 160 µM (inactive); in assay [5] it was 1.4 µM (active); in [6], > 350 µM (not active); in assay [7], 0.527 µM (active); in assay [14] it was 41.4 µM (active); in assay [17] it was > 180 µM (inactive). Further, the figures for the EC50 in assay [18] and in assay [19] were 6.31 µM (active) and 0.349 µM (active), respectively.
For the compound `C=CCOc1cccc(C2C(C(=O)c3cc4ccccc4o3)=C(O)C(=O)N2c2cc(C)on2)c1` (centres undefined), in assay [23], the concentration for half-maximal inhibition (IC50) was 48.6 µM (active). In addition, the AC50 in assay [24] is 7.35 µM (active). For the same compound, the figures for the EC50 in [25] and in [26] were > 300 µM (not active) and 80.5 µM (active), respectively.
Turning to `CCc1cccc(NC(=O)CCS(=O)(=O)c2ccc(Br)cc2)c1`, the EC50 in assay [27] is 6.25 µM (active); in assay [28] it was 58.3 µM (inactive). The IC50 in assay [29] is 6.99 µM (active).

A word on the IC50: it is the midpoint of a concentration-inhibition curve. The AC50 is the concentration giving half of the maximal activity seen. What is called EC50 is the midpoint of the concentration-response curve.

The values above are taken from ChEMBL document CHEMBL1201862, “PubChem BioAssay data set” (2004).
